Data as given in PMC5249144, “T Cell Subset and Stimulation Strength-Dependent Modulation of T Cell Activation by Kv1.3 Blockers” (PLoS ONE, 2017).
Like-named read-outs stand apart in the source and are kept apart here.

Assays:
[1] = test system: human CD4 and CD8 T cells; format: cell-based
Excerpt: (§1) Human PBMC were purified from donor blood by Ficoll-Paque (GE Healthcare) density centrifugation. CD4 or CD8 T cells were purified from human PBMC by negative selection using human CD4 or CD8 T cell isolation kit (Miltenyi Biotec) respectively. Naïve or memory CD4 T cells were isolated from CD4 T cells by negative selection using human naïve or memory CD4 T cell isolation kit (Miltenyi Biotec) respectively. Central and effector memory CD4 T cells were separated from memory CD4 T cells using biotinylated anti-CCR7 (BD Biosciences) and streptavidin coated magnetic beads (Miltenyie Biotec). Cells after treatment with antibodies and magnetic beads were purified with autoMACS (Miltenyi Biotec).
(§2) T cells were cultured in 96-well plates (Thermo Scientific) with 200μl medium/well. […]
(§3) Proliferation of T cells was measured by overnight pulsing with 1μCi/well of ^3H-thymidine (Perkin Elmer). […] Filter plates were soaked with scintillant (Perkin Elmer) and radioactivity was counted using a Topcount (Packard).
(§4) Cytokines in supernatants collected from blood or T cell cultures were measured with ELISA or electrochemiluminescent assays. IL-2 was measured by ELISA using the human IL-2 Quantikine Kit (R&D Systems). Other cytokines were detected using multiplex human cytokine electro-chemiluminescent kit (Meso Scale Discovery).

human CD4 T cell subsets = format: cell-based
Excerpt: as §1, §2, §3
In order to further understand the activity profile of Kv1.3 blockers on T cells, we compared the effects of Kv1.3 blockers on primary naïve, central memory and effector memory CD4 T cells. […] Purified T cells were activated with anti-CD3 in the presence of mitomycin C treated PBMC and the effects of Kv1.3 blockers on T cell proliferation were monitored and compared to cyclosporine A and BTP2.

[2] = test system: PBMC from allergic rhinitis patients; format: cell-based, human
Protocol: T cells were cultured in 96-well plates (Thermo Scientific) with 200μl medium/well. Culture medium was RPMI-1640 medium supplemented with 2% human A/B serum (Valley Biomedical Prod & Srv Inc.), 2 mM glutamine, 1mM sodium pyruvate, 10mM HEPES, 1mM MEM nonessential amino acid solution, and 100 U/ml each of penicillin G and streptomycin (all culture reagents from Life Technologies except for human serum). T cells were pre-treated with Kv1.3 blockers and other inhibitors for 30 minutes before stimulation. All assays were conducted with samples in duplicates or triplicates.
For T cell pan-activation with beads coated with anti-CD3 and anti-CD28 (eBioscience), T cells at 2 x 10^5 cells/well in 96-well flat-bottom plates were stimulated overnight with anti-CD3 and anti-CD28 coated beads (Miltenyi Biotec) at 2:1 bead/cell ratio or as indicated. For T cell pan-activation with anti-CD3, T cells at 5 x 10^4 cells/well in 96-well U-bottom plates were stimulated for 2 days with 1ng/ml of anti-CD3 in the presence of mitomycin C treated autologous PBMC at 1:1 T cell/PBMC ratio. […]
as §3

[3] = test system: thapsigargin stimulated human blood; experiment: Thapsigargin stimulated whole blood IL-2 production; format: cell-based; settings: whole blood diluted with equal volume IMDM, 20 hours
Protocol: Heparinized human blood was diluted with an equal volume of IMDM medium (Life Technologies) supplemented with 2% normal human A/B serum and plated at 200μl/well in 96-well plates for thapsigargin (Alomone) stimulation. CD4 T cells were plated at 5 x 10^5 cells/well in 96-well plates with 200μl medium/well. Blood or T cell samples were pre-treated with blockers or inhibitors for 30 minutes prior to stimulation with thapsigargin at 10μM or other concentrations as indicated for 20 hours. Cytokines in culture supernatants were measured as described in cytokine detection section.
as §4

human CD4 T cells [4] = experiment: Calcium flux in CD4 T cells, thapsigargin; format: cell-based; settings: BTP2 1μM, thapsigargin 1μM, monitored for 10 minutes
Protocol: (§5) T cells were loaded with 3μM each of Fluo4 and Fura red (Molecular Probes, Invitrogen) for 45 minutes in the dark at 37°C in cell loading medium (DMEM medium with 10mM HEPES and 10% fetal calf serum) in the presence of 0.01% pluronic acid (Molecular Probes). Dye-loaded cells were rinsed twice with loading medium, incubated with 10μg/ml mouse anti-CD3 (BD Biosciences) and 2.5μg/ml mouse anti-CD28 (BD Biosciences) for 30 minutes at room temperature, and then rinsed again with loading medium to be ready for calcium flux studies. Cells were acquired with FACS LSRII and cell activation was initiated by addition of goat anti-mouse antibody (Jackson ImmunoResearch) to final 10μg/ml. CD4 T cells were also stimulated with 1μM thapsigargin. Kinetics of calcium flux in activated cells were monitored by reading the calcium dependent Fluo4 emission signals at 530nm compared to non-specific Fura red signals at 685nm. Calcium flux was calculated as ratio of Fluo4 to Fura red emission signals.

human CD4 T cells [5] = experiment: Calcium flux in CD4 T cells, anti-CD3/CD28; format: cell-based; settings: BTP2 1μM
Protocol: as §5

Kv1.3 = settings: ref [5], [20]–[23]; cited from earlier work

Compound | block of T cell activation [1] | inhibition of T cell activation, in words [1] | inhibition of proliferation of T cell subsets, in words (human CD4 T cell subsets) | ragweed proliferative response, in words [2] | inhibition of IL-2 release from thapsigargin stimulated whole blood, in words [3] | reduction of calcium flux, in words (human CD4 T cells [4]) | inhibition of proliferation of T cell subsets, in words (human CD4 T cell subsets; maximal efficacious concentrations, naïve, Tcm, Tem CD4 T cells, anti-CD3/PBMC) | reduction of calcium flux, in words (human CD4 T cells [5]; anti-CD3/CD28, monitored for 10 minutes) | calcium flux by T cell population, in words (human CD4 T cells [5]; ShK 1nM, activated CD4 T cells, Fig 4C (anti-CD3/CD28 or thapsigargin)) | Kv1.3 block, in words (Kv1.3)
cyclosporine A | ~100% | fully inhibits T cell activation in all stimulation conditions | complete inhibition | reduced the proliferative response to its basal level | fully efficacious |  |  |  |  | 
Cc1nnsc1C(=O)Nc1ccc(-n2nc(C(F)(F)F)cc2C(F)(F)F)cc1 [BTP2] |  |  |  |  | fully efficacious | significantly reduced the calcium flux levels | complete inhibition | significantly reduced the calcium flux levels | reduced calcium flux in all activated T cells | 
CC[C@H](C)[C@@H]1NC(=O)[C@@H]2CSSC[C@@H]3NC(=O)[C@H](CCCCN)NC(=O)CNC(=O)[C@H](CC(N)=O)NC(=O)[C@H](CCSC)NC(=O)[C@H](CSSC[C@H](NC(=O)[C@H](CCCCN)NC(=O)[C@@H](NC(=O)[C@H](CC(=O)O)NC(=O)[C@@H](NC(=O)[C@@H]4CCCN4C(=O)[C@@H](NC(=O)CN)C(C)C)[C@@H](C)O)C(C)C)C(=O)N[C@@H](CCCNC(=N)N)C(=O)NCC(=O)N[C@@H](CO)C(=O)N4CCC[C@H]4C(=O)N[C@@H](CCC(N)=O)C(=O)N2)NC(=O)[C@H](CCCCN)NC(=O)CNC(=O)[C@H](Cc2ccccc2)NC(=O)[C@H](CCCNC(=N)N)NC(=O)[C@H](CCSC)NC(=O)CNC(=O)[C@H](C)NC(=O)[C@H](CC(=O)O)NC(=O)[C@H](CCCCN)NC(=O)[C@H](CSSC[C@@H](C(=O)N[C@H](C(=O)N2CCC[C@H]2C(=O)N[C@@H](CCCCN)C(=O)O)[C@@H](C)O)NC(=O)[C@H](Cc2c[nH]cn2)NC3=O)NC(=O)[C@@H]2CCCN2C(=O)[C@H](CCC(N)=O)NC1=O [OdK2] |  |  |  |  |  |  |  |  |  | potent blockers of Kv1.3
